According to PubChem BioAssay (NCI):
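96-well plates; 48 h exposure; 5 concentrations. Endpoints by linear interpolation between flanking doses. Not reached: highest tested concentration assigned. The concentration for 50% growth inhibition is given as GI50. TGI marks complete inhibition of growth.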

Columns and labels:
Assay in all cases: NCI-60 cell line screen, 48 h
A498 renal = system: A498 renal
EKVX NSCLC = system: EKVX NSCLC
HOP-62 NSCLC = system: HOP-62 NSCLC
NCI-H522 lung = system: NCI-H522 lung
SK-MEL-2 melanoma = system: SK-MEL-2 melanoma
SNB-19 CNS = system: SNB-19 CNS
TK-10 renal = system: TK-10 renal
UO-31 renal = system: UO-31 renal

Which TGI (A498 renal) does the source give for `CCc1[nH]nc(C(N)=O)c1N=NN(C)C` here?
Its TGI is over 100 µM.

And the TGI (EKVX NSCLC)?
The TGI was over 100 µM.

And the TGI (HOP-62 NSCLC)?
Its TGI is over 100 µM.

What about the TGI (NCI-H522 lung) of the same compound?
The TGI was over 100 µM.

What about the TGI (SK-MEL-2 melanoma) of the same compound?
Its TGI is over 100 µM.

And the TGI (SNB-19 CNS)?
Its TGI is over 100 µM.

What about the TGI (TK-10 renal) of the same compound?
The TGI was over 100 µM.

And the TGI (UO-31 renal)?
The TGI was over 100 µM.

Which GI50 (A498 renal) does the source give for `CC[C@]12C=CCN3CC[C@@]4(c5ccc(OC)cc5N(C)[C@H]4[C@@](O)(C(=O)OC)[C@@H]1OC(=O)CCC(=O)O[C@H]1CC[C@H]4[C@@H]5CC[C@H]6CC(=O)CC[C@]6(C)[C@H]5CC[C@]14C)[C@@H]32` here?
The GI50 was 4.13 µM.

And the TGI (A498 renal)?
The TGI was 30.8 µM.

What about the GI50 (EKVX NSCLC) of the same compound?
The GI50 was 1.78 µM.

What about the TGI (EKVX NSCLC) of the same compound?
Its TGI is over 100 µM.

What about the GI50 (HOP-62 NSCLC) of the same compound?
Its GI50 is 4.83 µM.

What about the TGI (HOP-62 NSCLC) of the same compound?
Its TGI is over 100 µM.

What about the GI50 (NCI-H522 lung) of the same compound?
Its GI50 is 2.85 µM.

What about the TGI (NCI-H522 lung) of the same compound?
Its TGI is 27 µM.

What about the GI50 (SK-MEL-2 melanoma) of the same compound?
Its GI50 is 2.49 µM.

What about the TGI (SK-MEL-2 melanoma) of the same compound?
Its TGI is 6.18 µM.

What about the GI50 (SNB-19 CNS) of the same compound?
Its GI50 is 4.85 µM.

And the TGI (SNB-19 CNS)?
Its TGI is over 100 µM.

And the GI50 (TK-10 renal)?
Its GI50 is 2.55 µM.

And the TGI (TK-10 renal)?
The TGI was 17.8 µM.

For `CCCCC(OC(=O)c1ccc(N)cc1)C(=O)Nc1nc(CC(=O)OCC)cs1` (stereo not drawn), which GI50 (A498 renal) is on record?
Its GI50 is 57.4 µM.

And the TGI (A498 renal)?
Its TGI is over 100 µM.

What about the GI50 (EKVX NSCLC) of the same compound?
The GI50 was 38 µM.

And the TGI (EKVX NSCLC)?
The TGI was over 100 µM.

And the GI50 (HOP-62 NSCLC)?
The GI50 was 56.5 µM.

And the TGI (HOP-62 NSCLC)?
The TGI was over 100 µM.

What about the GI50 (NCI-H522 lung) of the same compound?
Its GI50 is 33.9 µM.

What about the TGI (NCI-H522 lung) of the same compound?
Its TGI is over 100 µM.

And the GI50 (SK-MEL-2 melanoma)?
Its GI50 is 25.7 µM.

And the TGI (SK-MEL-2 melanoma)?
The TGI was 77.4 µM.

And the GI50 (SNB-19 CNS)?
The GI50 was 49.9 µM.

And the TGI (SNB-19 CNS)?
Its TGI is over 100 µM.

What about the GI50 (TK-10 renal) of the same compound?
Its GI50 is 40 µM.

And the TGI (TK-10 renal)?
The TGI was over 100 µM.

And the GI50 (UO-31 renal)?
Its GI50 is 40.9 µM.

And the TGI (UO-31 renal)?
Its TGI is over 100 µM.

For `Fc1ccc(-c2ncn(CCCN3CCOCC3)c2-c2ccncc2)cc1`, which GI50 (A498 renal) is on record?
Its GI50 is over 25 µM.

What about the TGI (A498 renal) of the same compound?
The TGI was over 25 µM.

And the GI50 (EKVX NSCLC)?
Its GI50 is over 25 µM.

What about the TGI (EKVX NSCLC) of the same compound?
Its TGI is over 25 µM.

What about the GI50 (HOP-62 NSCLC) of the same compound?
The GI50 was over 25 µM.

And the TGI (HOP-62 NSCLC)?
The TGI was over 25 µM.

What about the GI50 (NCI-H522 lung) of the same compound?
The GI50 was over 25 µM.

And the TGI (NCI-H522 lung)?
Its TGI is over 25 µM.

And the GI50 (SK-MEL-2 melanoma)?
The GI50 was over 25 µM.

And the TGI (SK-MEL-2 melanoma)?
The TGI was over 25 µM.

What about the GI50 (SNB-19 CNS) of the same compound?
The GI50 was over 25 µM.

What about the TGI (SNB-19 CNS) of the same compound?
The TGI was over 25 µM.

And the GI50 (TK-10 renal)?
Its GI50 is over 25 µM.

What about the TGI (TK-10 renal) of the same compound?
Its TGI is over 25 µM.

What about the GI50 (UO-31 renal) of the same compound?
Its GI50 is over 25 µM.

And the TGI (UO-31 renal)?
The TGI was over 25 µM.

How did the GI50 (A498 renal) turn out when `C#Cc1cccc(NC(=O)c2cccc(NC(=O)CCl)c2)c1` was run?
The GI50 was 6.14 µM.

And the TGI (A498 renal)?
Its TGI is over 82.5 µM.

What about the GI50 (EKVX NSCLC) of the same compound?
The GI50 was 27.2 µM.

What about the TGI (EKVX NSCLC) of the same compound?
Its TGI is over 82.5 µM.

And the GI50 (HOP-62 NSCLC)?
Its GI50 is 27.8 µM.

And the TGI (HOP-62 NSCLC)?
Its TGI is over 82.5 µM.

What about the GI50 (NCI-H522 lung) of the same compound?
Its GI50 is 12.7 µM.

And the TGI (NCI-H522 lung)?
Its TGI is 33.4 µM.

And the GI50 (SK-MEL-2 melanoma)?
The GI50 was 62.8 µM.

And the TGI (SK-MEL-2 melanoma)?
Its TGI is over 82.5 µM.

What about the GI50 (SNB-19 CNS) of the same compound?
Its GI50 is 31.1 µM.

What about the TGI (SNB-19 CNS) of the same compound?
The TGI was over 82.5 µM.

What about the GI50 (TK-10 renal) of the same compound?
Its GI50 is 25.9 µM.

And the TGI (TK-10 renal)?
Its TGI is over 82.5 µM.

What about the GI50 (UO-31 renal) of the same compound?
The GI50 was 12 µM.

What about the TGI (UO-31 renal) of the same compound?
Its TGI is 22.9 µM.

For `Cc1ccc2[nH]c(O)c(N=Nc3ccccc3[N+](=O)[O-])c2c1`, which TGI (A498 renal) is on record?
Its TGI is 34.6 µM.

What about the TGI (EKVX NSCLC) of the same compound?
Its TGI is 57.3 µM.

What about the TGI (HOP-62 NSCLC) of the same compound?
The TGI was 10.7 µM.

And the TGI (NCI-H522 lung)?
The TGI was 5.29 µM.

And the TGI (SK-MEL-2 melanoma)?
The TGI was over 100 µM.

What about the TGI (SNB-19 CNS) of the same compound?
Its TGI is over 81.1 µM.

And the TGI (TK-10 renal)?
The TGI was 64.5 µM.

What about the TGI (UO-31 renal) of the same compound?
Its TGI is 9.3 µM.

What does the source list for `O=C(O)CN1C(=O)CN=C(c2ccccn2)c2cc(Cl)ccc21`?
TGI (A498 renal): > 100 µM; TGI (EKVX NSCLC): > 100 µM; TGI (HOP-62 NSCLC): > 100 µM; TGI (NCI-H522 lung): > 100 µM; TGI (SK-MEL-2 melanoma): > 100 µM; TGI (SNB-19 CNS): > 100 µM; TGI (TK-10 renal): > 100 µM; TGI (UO-31 renal): > 100 µM

For `O=C(Nc1ccccc1Cl)c1ccc(NC2=C(Cl)C(=O)N(C3CCCCC3)C2=O)cc1`, which GI50 (A498 renal) is on record?
The GI50 was 40.6 µM.

What about the TGI (A498 renal) of the same compound?
The TGI was 157 µM.

What about the GI50 (EKVX NSCLC) of the same compound?
The GI50 was 24.3 µM.

And the TGI (EKVX NSCLC)?
The TGI was 53.1 µM.

What about the GI50 (HOP-62 NSCLC) of the same compound?
The GI50 was 8.37 µM.

What about the TGI (HOP-62 NSCLC) of the same compound?
Its TGI is 29.3 µM.

And the GI50 (NCI-H522 lung)?
The GI50 was 6.23 µM.

What about the TGI (NCI-H522 lung) of the same compound?
Its TGI is 34.7 µM.

What about the GI50 (SK-MEL-2 melanoma) of the same compound?
The GI50 was 16.7 µM.

What about the TGI (SK-MEL-2 melanoma) of the same compound?
The TGI was 44.1 µM.

And the GI50 (SNB-19 CNS)?
The GI50 was 16.9 µM.

And the TGI (SNB-19 CNS)?
Its TGI is 38.5 µM.

What about the GI50 (TK-10 renal) of the same compound?
Its GI50 is 20.6 µM.

And the TGI (TK-10 renal)?
Its TGI is 44.3 µM.

And the GI50 (UO-31 renal)?
Its GI50 is 16.6 µM.

What about the TGI (UO-31 renal) of the same compound?
The TGI was 42.3 µM.

`O=C(Nc1n[nH]c2nc(-c3ccc(O)cc3)c(Br)cc12)C1CC1` was tested. Which GI50 (A498 renal) did it give?
The GI50 was 4.65 µM.

What about the TGI (A498 renal) of the same compound?
Its TGI is 14.4 µM.

And the GI50 (EKVX NSCLC)?
The GI50 was 6.34 µM.

And the TGI (EKVX NSCLC)?
The TGI was 19 µM.

And the GI50 (HOP-62 NSCLC)?
The GI50 was 5.32 µM.

And the TGI (HOP-62 NSCLC)?
The TGI was 14 µM.

What about the GI50 (NCI-H522 lung) of the same compound?
Its GI50 is 4.33 µM.

And the TGI (NCI-H522 lung)?
The TGI was 12.1 µM.

What about the GI50 (SK-MEL-2 melanoma) of the same compound?
Its GI50 is 3.07 µM.

And the TGI (SK-MEL-2 melanoma)?
The TGI was 7.17 µM.

What about the GI50 (SNB-19 CNS) of the same compound?
Its GI50 is 6.96 µM.

What about the TGI (SNB-19 CNS) of the same compound?
Its TGI is over 24.1 µM.

And the GI50 (TK-10 renal)?
Its GI50 is 7.29 µM.

And the TGI (TK-10 renal)?
Its TGI is 17.4 µM.

What about the GI50 (UO-31 renal) of the same compound?
The GI50 was 3.93 µM.

And the TGI (UO-31 renal)?
The TGI was 15.3 µM.
